Where “and” joins values, the source holds several entries; their conditions need not be identical. Equal values may be shown once. Entries after “also recorded” stand apart in the source; their conditions may differ.
What was measured:
[1] = Optical properties of the CypH dyes: absorbance maximum and extinction coefficient in EtOH (Table 1); format: physicochemical; details: for Ex Coeff (M^−1cm^−1) @ Abs Max: at absorbance maximum
Experimental: (§1) Characterization: All new CypH dyes were characterized by proton NMR and mass spectrometry to confirm identity. NMR data was consistent with the structure and mass spectrometry results gave the expected mass of the dye±0.5 amu. An HPLC method was developed (see below) and used to assess dye purity. […] Retention times on the column generally correlated with lipophilicity of the dyes with water soluble dyes containing sulfate groups eluting out earlier (@10.6 min for CypH-3, 6, 9) than CypH-1 (@11.9 min) and the more lipophilic dyes later. Optical properties of the dyes, acid dissociation constants and solubilities were also determined. Synthetic intermediates were also characterized by proton NMR.

[2] = Absorbance and fluorescence spectra (excitation/emission maxima); format: physicochemical
[3] = test system: OVASAHO/RFP-Luc subcutaneous tumors; experiment: In vivo fluorescence imaging of subcutaneous tumors by spraying, OVASAHO/RFP-Luc model; set-up: species or system mice; details: for fluorescence on tumor and normal tissue after spray: no washing; for signal to background ratio (tumor-to-muscle): 2 μM
Description: Detection of subcutaneous tumors by spraying. To evaluate the in vivo performance of the fluorogenic probes via the “spray-and-see” technique, an OVASAHO subcutaneous tumor model was used. For a facile signal co-registration, the cells were first engineered to express red fluorescence protein (RFP). Two weeks after subcutaneous inoculating of OVASAHO/RFP-Luc cells into both flanks, the tumors reached around 5 mm in size. The skin on the tumor area was removed, then the CypH-11 or Cy7 solution (2 μM in PBS) was sprayed once onto the exposed area. The whole body fluorescence images were continuously captured at various time points without washing (FIG. 14A). The tumor tissues were conveniently delineated by their intrinsic RFP fluorescence.
Tumor models of subcutaneous implants and peritoneal implants. All animal procedures were carried out in compliance with the approved animal protocols and guidelines of the Institutional Animal Care and Use Committee at Weil Cornell Medical College. Mice (female, SCID Hairless Outbred Mouse) were purchased from Charles River (Wilmington, MA). To establish the subcutaneous implants, a suspension of OVASAHO/RFP-Luc cells (5.0×10^6) or SKOV3/GFP-Luc cells (5.0×10^6) in 100 μL PBS was inoculated into each flank of the female nude mice on both sides. After two weeks, the tumor implants grew to around 5 mm in size and were used for the spray experiment. To establish the peritoneal implants, SKOV3/GFP-Luc cells (5.0×10^6) suspended in […] were injected into the abdominal cavities of the female nude mice. After two weeks, the tumor growth was examined with an in vivo bioluminescence imaging system followed by peritoneal injection of D-luciferin potassium solution (200 μL, 15 mg/mL) for 10 min. Generally, mice bearing multiple disseminated peritoneal implants of 5 mm size in diameter were used for the experiment.
In vivo fluorescence imaging of subcutaneous tumors. Two subcutaneous tumor models (OVASAHO/RFP-Luc and SKOV3/GFP-Luc) were used to compare the imaging capability of CypH-11, CypH-1, and Cy7. Mice bearing the subcutaneous implants were anesthetized in an induction chamber using 2% isoflurane, and anesthesia was maintained with 1.5-2.0% isoflurane via a nose cone. Sterile surgical tools were used to remove skin around the tumor. The mice images were captured using an IVIS SpectrumCT System from PerkinElmer (Waltham, MA). OVASAHO/RFP-Luc and SKOV3/GFP-Luc tumors were captured under an RFP channel (Excitation: 520-550 nm and Emission: 570-590 nm) and a GFP channel (Excitation: 450-480 nm and Emission: 510 530 nm), respectively. A Cy7 channel (Excitation: 730-760 nm and Emission: 790-810 nm) was applied to evaluate the fluorescence generated by CypH-11, CypH-1, and Cy7. After skin removal, the tumor area and the background fluorescence under the Cy7 channel were measured first. Solutions of CypH-11, CypH-1, and Cy7 (2 μM each) were sprayed on the surgical area, and the fluorescence of the Cy7 channel was measured continuously at each time point (1, 3, 5, 7, 10, and 15 min). Ten, five, and three OVASAHO tumors were used to evaluate CypH-11, CypH-1, and Cy7, respectively. Six SKOV3 tumors were used to evaluate CypH-11. To evaluate the tumor-to-normal tissue ratio, the whole tumor regions and the adjacent open-skin areas were drawn, and their fluorescence intensity was acquired by the IVIS software. Tumor-to-normal tissue ratio value was calculated as the average fluorescence intensity of the tumor divided by that of the normal area. Also, tumor-bearing mice were euthanized by carbon dioxide inhalation or a high dose of isoflurane (5%). The subcutaneous tumors and the adjacent muscles were then extracted, and CypH-11 (2 μM) was sprayed onto them. Images were subsequently captured under GFP/RFP/Cy7 channels.

[4] = Solubility of the CypH dyes (Table 1); format: physicochemical; details: organic solvent or mixture; in EtOH; read-out: Solubility
Experimental: as §1

[5] = Fluorescence properties of the CypH dyes at pH 5.0 and pH 7.5 (Table 2); format: physicochemical; details: for Ratio Intensity pH 5.0/7.5: fluorescence intensity pH 5.0 over pH 7.5
Description: The excitation and emission maxima of CypH-1 are 760 and 777 nm, respectively. The signal intensity ratio of pH 5 over pH 7.5 was about 10. The meso-bridge ring size, lipophilicity and electro-density of CypH-1 was modified to provide better optical property. […] The best compound from this group was CypH-5 whose fluorescence ratio of pH 5.0/pH 7.5 was increased to 22. Based on this initial structure and property relationship, the second round of 10 new analogs were designed using CypH-5 as the core, focusing on modifying the electron density on the aniline ring and the indolinium ring. Various alkyl groups, such as methyl, ethyl, propyl, isopropyl and their combinations, were applied to these two positions.
The CypH analogs with other longer alkyl chains had much lower background fluorescence. […] Among them, CypH-11, which has a methyl isopropyl aniline and an isopropyl group on the indolinium ring, gave a 112-fold enhancement in fluorescence signal. CypH-11 has absorbance and emission maxima at 766 nm and 785 nm, respectively (FIG. 4) and was selected as the lead compound (vide infra).

[6] = conditions not stated, previously published lead probe

Compound | Ex Coeff (M^−1cm^−1) @ Abs Max [1] | Abs. Max (nm) in EtOH [1] [nm] | emission maximum [2, 6] [nm] | excitation maximum [2, 6] [nm] | tumor to muscle ratio over the time course ([3]; 2 μM sprayed, all time points) | fluorescence on tumor and normal tissue after spray ([3]; 2 μM sprayed) | Solubility [4] [µM] | Ratio Intensity pH 5.0/7.5 [5] | Ratio Intensity pH 5.0/7.5 ([5]; listed as 1) | FL Intensity pH 5.0 [5] | FL Max (nm) pH 5.0 [5] [nm] | FL Intensity pH 7.5 [5] | FL Max (nm) pH 7.5 [5] [nm] | Emmax / emission maximum ([2]; 2 μM, pH 5.0 phosphate buffer) [nm] | Exmax / absorbance maximum ([2]; 2 μM, pH 5.0 phosphate buffer) | time to fluorescence plateau ([3]; 2 μM in PBS, sprayed once) [min] | signal to background ratio (tumor-to-muscle) ([3]; 1 min after spray) | signal to background ratio (tumor-to-muscle) ([3]; 5 min after spray) | signal to background ratio (tumor-to-muscle) ([3]; 10 min after spray) | Ratio Intensity pH 5.0/7.5 ([5]; listed as 11)
CN(C)c1ccc(OC2=C(/C=C/C3=[N+](C)c4ccccc4C3(C)C)CCC/C2=C\C=C2\N(C)c3ccccc3C2(C)C)cc1.[Cl-] [CypH-1, reference compound] | 74,450 M^−1cm^−1 | 760 | 777 | 760 | around 1.0 | failed to detect the ovarian tumors by spraying; also recorded: very poor fluorescence enhancement in both the tumor and neighboring normal tissues | > 1000 | about 10 | 10.1 | 3363 | 787 | 334 | 782 | – | – | – | – | – | – | –
CC(C)N(C)c1ccc(OC2=C(/C=C/C3=[N+](C(C)C)c4ccccc4C3(C)C)CCC/C2=C\C=C2\N(C(C)C)c3ccccc3C2(C)C)cc1.[I-] [CypH-11] | 233,800 M^−1cm^−1 | 771 | – | – | – | high fluorescence only on tumors but not on normal tissue | > 1000 | 112 | – | 5028 | 790 | 45 | 785 | 785 | 766 nm and 765 nm | ≤ 10 | 1.3 | 1.4 | 1.5 | 111.7
